Entries after “also recorded” stand apart in the source; their conditions may differ. Where two headings read alike, the source gives them in different places.
Assays:
[1] = target: T1, hFXR-LBD (interaction with coactivator SRC-1) (Homo sapiens, UniProt Q96RI1); assay: Y2H antagonist assay: inhibition of CDCA-induced SRC-1 recruitment to FXR-LBD (α-galactosidase readout); details: for antagonistic activity against FXR (in words): coactivator recruitment assay; for inhibition at 25 µM: read-out: Inhibition rate % (25 μM), 25 μM compound plus 10 μM CDCA, 24 h, average of triplicate
T1 sequence (Q96RI1 200-472 isoform Q96RI1-2): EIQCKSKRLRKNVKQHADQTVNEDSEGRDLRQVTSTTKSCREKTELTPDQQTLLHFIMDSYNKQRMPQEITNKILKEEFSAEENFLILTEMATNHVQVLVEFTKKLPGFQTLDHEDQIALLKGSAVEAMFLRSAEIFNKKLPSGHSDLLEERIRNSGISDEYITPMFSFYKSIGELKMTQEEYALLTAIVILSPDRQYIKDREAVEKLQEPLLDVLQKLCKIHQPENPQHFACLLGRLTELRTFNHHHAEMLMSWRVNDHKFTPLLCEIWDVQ
Method: We performed Y2H assay to determine the agonistic or antagonistic activities of the compounds. […] The quantitative α-galactosidase activity assays were carried out by using PNP-α-Gal as the substrate according to the Clontech manual. Each experiment was repeated three times independently.
• Vortex the overnight culture tube for 0.5–1 min to disperse cell clumps and then each sample needs 200 μL to record the exact OD600. • Centrifuge the tube at 14,000 rpm (10,000 × g) for 30 s. Incubate 16 μL cell culture medium supernatant with 48 μL PNP-α-Gal at 30°C for 60 min. Be sure to cover microtiter plates with a lid or parafilm to prevent evaporation. • Terminate the reaction by adding 136 μL of 1 μM sodium carbonate. Record the optical density of each sample at 410 nm.
The α-galactosidase activity was calculated according to the following formula:
α−galactosidase activity[milliunits/(mL×cell)]​ ​​​=OD410×Vf×1000/(ε×b)×t×Vi×OD600
The agonistic activation and inhibition rates (%) were calculated as follows:

[2] = target: T2, hFXR-LBD (interaction with coactivator SRC-1) (Homo sapiens, UniProt Q96RI1); assay: Y2H agonist assay: SRC-1 recruitment to FXR-LBD (α-galactosidase readout); assay type: cell-based; details: GAtreated/GADMSO (DMSO = 1.00), average of triplicate
T2 construct: human FXRα-LBD (200-473 AA) was sub-cloned into vector pGBKT-7; expressed in transfected cells; host or cells: Saccharomyces cerevisiae strain AH109 (Clontech), co-transformed with pGBKT7-FXR LBD and pGADT7-SRC-1
T2 sequence (Q96RI1 214-486): T1 sequence (Q96RI1 200-472 isoform Q96RI1-2)
From the text: Each experiment was repeated three times independently.
agonistic activation=GAtreated/GADMSOinhibition rate(%)=GACDCA−GAtreated/GACDCA−GADMSO
where GA indicates α-galactosidase activity.

[3] = test system: estrogen receptor (ER); details: cited from earlier work; for agonistic profiles against ER (in words): ref Cao et al., 2013
[4] = test system: FXR; details: cited from earlier work
[5] = test system: FXR; details: FXR antagonist, cited from earlier work
[6] = test system: FXR; details: FXR antagonist, cited from earlier work; remark: listed apart in the source
[7] = test system: FXR; design: method as in Dussault et al., 2003; details: FXR antagonist; ref Dussault et al., 2003; cited from earlier work
[8] = test system: FXR; design: method as in Xu et al., 2015; details: FXR antagonist; ref Xu et al., 2015; cited from earlier work

Row | IC50 [1] [µM] | inhibition at 25 µM [1] [%] | Agonistic activation (25 μM) [2] | SMILES | antagonistic activity against FXR (in words) [1] | further results
1 | 1.29 |  | 1.05 | CC(C)(O)c1ccc2c(c1)C(=O)CC1[C@](C)(C(=O)O)CCC[C@]21C (stereo partly drawn) [Compound 2a, 15-Hydroxy-7-oxo-8,11,13-abietatrien-18-oic acid] |  | fold stronger antagonistic activity compared with compound 1a ([1]; vs compound 1a): 10 fold
2 | > 25 | 10.1 | 0.90 | CC(=O)c1ccc2c(c1)C(=O)CC1[C@](C)(C(=O)O)CCC[C@]21C (stereo partly drawn) [Compound 2b, 17-Nor-7,15-dion-8,11,13-abietatrien-18-oic acid] | no observed activity | 
3 | 1.79 |  | 1.03 | O=C(CCCCc1ccccc1)c1ccc(O)cc1 [Compound 3a, Daphneone] |  | fold higher antagonistic activity against FXR compared to guggulsterone [1]: 3 fold
4 | > 25 | 41.4 | 0.76 | O=C(CC(O)CCc1ccccc1)c1ccc(O)cc1 (stereo not drawn) [Compound 3b, Daphneolon] |  | 
5 | 5.46 | > 50 | 1.29 | O=C(/C=C/CCc1ccccc1)c1ccc(O)cc1 [Compound 3c, Daphnenone] |  | 
6 | 14.1 | 52.8 | 1.08 | O=C(O)C=Cc1ccc(O)cc1 [Compound 3d, P-coumaric acid] | moderate antagonistic activities; also recorded: moderate antagonistic effects | agonistic profiles against ER (in words) [3]: agonistic profiles
7 | 19.3 | 60.1 | 0.93 | CCOC(=O)c1ccc(O)cc1 [Compound 3e, Ethylparaben] | moderate antagonistic activities; also recorded: moderate antagonistic effects | agonistic profiles against ER (in words) [3]: agonistic profiles
9 |  |  |  | CC1(CO)CCCC2(C)C1CCC1(C)C2CC(O)C2(C)C3COC(=O)C3=CCC12 (stereo not drawn) [Compound 8] |  | IC50 ([5]; ref Nam et al., 2007): 2.4 µM
10 |  |  |  | CC(C)=CCCC1=C[C@@H](C/C(C)=C/CC[C@@]2(C)C=Cc3cc(O)cc(C)c3O2)OC1=O [Compound 10] |  | IC50 ([5]; ref Choi et al., 2011): 1.5 µM
11 |  |  |  | COc1cc(/C=C2\C(=O)N(c3cccc([N+](=O)[O-])c3)N=C2c2ccccc2)ccc1O [Compound 11] |  | IC50 ([6]; ref Huang et al., 2012): 8.96 µM
12 |  |  |  | CCCCCCCc1c(\C(C)=C/C=C/C(C)=C/C(=O)O)cc(C(C)C)cc1C(C)C [Compound 14] |  | IC50 [7]: 0.3 µM
13 |  |  |  | CCCCC/C=C/C=C1/C=CC(=O)[C@@H]1C/C=C\CCCC(=O)O [Compound 17] |  | IC50 ([6]; ref Xu et al., 2013): 7.25 µM
14 |  |  |  | CN(C)c1cc(Cl)c(C(=O)N(Cc2ccccc2)c2ccc(O)c(C(C)(C)C)c2)c(Cl)c1 [Compound 18, N-benzyl-N-(3-(tert-butyl)-4-hydroxyphenyl)-2,6-dichloro-4-(dimethylamino) benzamide] |  | IC50 [8]: 3.4 µM
15 |  |  |  | COC(=O)/C=C/c1cccc(N(Cc2ccc(-c3ccc(N(C)C)cc3)cc2)C(=O)C2CCCCC2)c1 [Fexeramine, Fexaramine] |  | EC50 ([4]; reported FXR modulators, Figure 1, reference not given, read-out: EC50, FXR agonists (Figure 1)): 0.025 µM

Row | SMILES | IC50 [1] [µM] | inhibition at 25 µM [1] [%] | Agonistic activation (25 μM) [2] | antagonistic activity against FXR (in words) [1] | further results
16 | C/C(=C/C(=O)C[C@@H](C)[C@]1(C)CC[C@@]2(C)C3=CCC4C(C)(C)[C@H](O)CC[C@]4(C)[C@@H]3CC=C21)C(=O)O (stereo partly drawn) [Compound 1a, Abiesatrine B] | 13.5 | > 50 | 1.09 | moderate antagonistic activity | agonistic effect against estrogen receptor (ER) (in words) ([3]; reported in a previous study, no reference given): moderate agonistic effect
17 | C/C(=C/C(=O)C[C@@H](C)[C@H]1CC[C@@]2(C)C3=CCC4C(C)(C)C(=O)CC[C@]4(C)C3CC[C@]12C)C(=O)O (stereo partly drawn) [Compound 1b, (24Z)-3,23-Dioxo-9βH-lanosta-7,24-dien-27-oic acid] | > 25 | 22.7 | 1.12 | no detectable antagonistic activity | 
18 | C/C(=C\CC[C@@H](C)[C@H]1CC[C@@]2(C)C3=CCC4C(C)(C)C(=O)CC[C@]4(C)C3CC[C@]12C)C(=O)O (stereo partly drawn) [Compound 1c, Abiesatrine D] | > 25 | 12.8 | 0.93 | no detectable antagonistic activity | 

From PMC5936786, “Discovery of Natural Products as Novel and Potent FXR Antagonists by Virtual Screening” (Frontiers in Chemistry, 2018)
